Assay results taken from PubChem BioAssay (NCI).
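Where inhibition never reached the appropriate level, the endpoint shown equals the highest concentration tested. Otherwise, values were interpolated linearly from a five-concentration, 48-hour dose response in 96-well plates. TGI: total growth inhibition.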

Legend:
Assay in all cases: growth of human tumour cells (NCI), 48 h
786-0 renal = system: 786-0 renal
A498 renal = system: A498 renal
A549 NSCLC = system: A549 NSCLC
ACHN renal = system: ACHN renal
CAKI-1 renal = system: CAKI-1 renal
CCRF-CEM leukemia = system: CCRF-CEM leukemia
COLO 205 colon = system: COLO 205 colon
DLD-1 colon = system: DLD-1 colon
DMS 114 small cell lung = system: DMS 114 small cell lung
DMS 273 small cell lung = system: DMS 273 small cell lung
EKVX NSCLC = system: EKVX NSCLC
HCC-2998 colon = system: HCC-2998 colon
HCT-116 colon = system: HCT-116 colon
HCT-15 colon = system: HCT-15 colon
HL-60(TB) leukemia = system: HL-60(TB) leukemia
HOP-18 NSCLC = system: HOP-18 NSCLC
HOP-62 NSCLC = system: HOP-62 NSCLC
HOP-92 NSCLC = system: HOP-92 NSCLC
HT29 colon = system: HT29 colon
IGROV1 ovarian = system: IGROV1 ovarian
K-562 leukemia = system: K-562 leukemia
KM12 colon = system: KM12 colon
KM20L2 colon = system: KM20L2 colon
LOX IMVI melanoma = system: LOX IMVI melanoma
LXFL 529 NSCLC = system: LXFL 529 NSCLC
M14 melanoma = system: M14 melanoma
M19-MEL melanoma = system: M19-MEL melanoma
MALME-3M melanoma = system: MALME-3M melanoma
MOLT-4 leukemia = system: MOLT-4 leukemia
NCI-H226 lung = system: NCI-H226 lung
NCI-H23 lung = system: NCI-H23 lung
NCI-H460 lung = system: NCI-H460 lung
NCI-H522 lung = system: NCI-H522 lung
OVCAR-3 ovarian = system: OVCAR-3 ovarian
OVCAR-4 ovarian = system: OVCAR-4 ovarian
OVCAR-5 ovarian = system: OVCAR-5 ovarian
OVCAR-8 ovarian = system: OVCAR-8 ovarian
RPMI-8226 leukemia = system: RPMI-8226 leukemia
SF-268 CNS = system: SF-268 CNS
SF-295 CNS = system: SF-295 CNS
SF-539 CNS = system: SF-539 CNS
SK-MEL-2 melanoma = system: SK-MEL-2 melanoma
SK-MEL-28 melanoma = system: SK-MEL-28 melanoma
SK-MEL-5 melanoma = system: SK-MEL-5 melanoma
SK-OV-3 ovarian = system: SK-OV-3 ovarian
SN12C renal = system: SN12C renal
SNB-19 CNS = system: SNB-19 CNS
SNB-75 CNS = system: SNB-75 CNS
SNB-78 CNS = system: SNB-78 CNS
SR leukemia = system: SR leukemia
SW-620 colon = system: SW-620 colon
TK-10 renal = system: TK-10 renal
U251 CNS = system: U251 CNS
UACC-257 melanoma = system: UACC-257 melanoma
UACC-62 melanoma = system: UACC-62 melanoma
UO-31 renal = system: UO-31 renal
XF 498 CNS = system: XF 498 CNS
RXF 393 renal = system: RXF 393 renal

CC(C)C1NC(=O)[C@H](C)OC(=O)[C@@H](C(C)C)NC(=O)[C@@H](C)OC(=O)C(C(C)C)NC(=O)[C@H](C)OC1=O (some centres not stated)
TGI (786-0 renal): 47.2 µM | TGI (A498 renal): > 100 µM | TGI (A549 NSCLC): > 100 µM | TGI (ACHN renal): > 100 µM | TGI (CAKI-1 renal): > 100 µM | TGI (CCRF-CEM leukemia): > 100 µM | TGI (COLO 205 colon): > 94.8 µM | TGI (DLD-1 colon): > 100 µM | TGI (DMS 114 small cell lung): > 100 µM | TGI (DMS 273 small cell lung): > 100 µM | TGI (EKVX NSCLC): > 100 µM | TGI (HCC-2998 colon): > 100 µM | TGI (HCT-116 colon): > 100 µM | TGI (HCT-15 colon): 34.2 µM | TGI (HL-60(TB) leukemia): > 100 µM | TGI (HOP-18 NSCLC): > 100 µM | TGI (HOP-62 NSCLC): > 100 µM | TGI (HOP-92 NSCLC): > 100 µM | TGI (HT29 colon): > 100 µM | TGI (IGROV1 ovarian): > 100 µM | TGI (K-562 leukemia): > 59.3 µM | TGI (KM12 colon): > 100 µM | TGI (KM20L2 colon): > 100 µM | TGI (LOX IMVI melanoma): > 79 µM | TGI (LXFL 529 NSCLC): > 100 µM | TGI (M14 melanoma): > 100 µM | TGI (M19-MEL melanoma): > 100 µM | TGI (MALME-3M melanoma): > 100 µM | TGI (MOLT-4 leukemia): > 100 µM | TGI (NCI-H226 lung): > 100 µM | TGI (NCI-H23 lung): > 100 µM | TGI (NCI-H460 lung): > 100 µM | TGI (NCI-H522 lung): > 100 µM | TGI (OVCAR-3 ovarian): > 100 µM | TGI (OVCAR-4 ovarian): > 100 µM | TGI (OVCAR-5 ovarian): > 100 µM | TGI (OVCAR-8 ovarian): > 100 µM | TGI (RPMI-8226 leukemia): > 68.8 µM | TGI (SF-268 CNS): > 100 µM | TGI (SF-295 CNS): > 100 µM | TGI (SF-539 CNS): > 81.7 µM | TGI (SK-MEL-2 melanoma): > 100 µM | TGI (SK-MEL-28 melanoma): > 100 µM | TGI (SK-MEL-5 melanoma): > 100 µM | TGI (SK-OV-3 ovarian): > 100 µM | TGI (SN12C renal): > 100 µM | TGI (SNB-19 CNS): > 100 µM | TGI (SNB-75 CNS): > 100 µM | TGI (SNB-78 CNS): > 100 µM | TGI (SR leukemia): 72.9 µM | TGI (SW-620 colon): > 51.7 µM | TGI (TK-10 renal): > 100 µM | TGI (U251 CNS): > 100 µM | TGI (UACC-257 melanoma): > 100 µM | TGI (UACC-62 melanoma): > 100 µM | TGI (UO-31 renal): > 100 µM | TGI (XF 498 CNS): > 100 µM

Cc1nc(-n2nc(-c3ccccc3)cc2-c2ccccc2)sc1C(=O)/C=C/c1ccc(Cl)cc1
TGI (786-0 renal): 27.4 µM | TGI (A498 renal): 83.3 µM | TGI (A549 NSCLC): 64.9 µM | TGI (ACHN renal): > 100 µM | TGI (CAKI-1 renal): 62.7 µM | TGI (CCRF-CEM leukemia): 78.1 µM | TGI (COLO 205 colon): 30.1 µM | TGI (DLD-1 colon): 26.8 µM | TGI (DMS 114 small cell lung): 28.3 µM | TGI (DMS 273 small cell lung): > 100 µM | TGI (EKVX NSCLC): > 100 µM | TGI (HCC-2998 colon): 29.9 µM | TGI (HCT-15 colon): > 100 µM | TGI (HL-60(TB) leukemia): 33.1 µM | TGI (HOP-18 NSCLC): 29.6 µM | TGI (HOP-62 NSCLC): 34.4 µM | TGI (HOP-92 NSCLC): 43 µM | TGI (HT29 colon): 29.6 µM | TGI (IGROV1 ovarian): > 100 µM | TGI (KM12 colon): 25.6 µM | TGI (KM20L2 colon): 77.6 µM | TGI (LOX IMVI melanoma): 27.9 µM | TGI (M19-MEL melanoma): 39.6 µM | TGI (MALME-3M melanoma): 52.5 µM | TGI (MOLT-4 leukemia): 41 µM | TGI (NCI-H226 lung): 42.1 µM | TGI (NCI-H23 lung): 34 µM | TGI (NCI-H460 lung): 76.5 µM | TGI (NCI-H522 lung): 25.9 µM | TGI (OVCAR-3 ovarian): 35.6 µM | TGI (OVCAR-5 ovarian): > 100 µM | TGI (OVCAR-8 ovarian): > 100 µM | TGI (RPMI-8226 leukemia): 26.7 µM | TGI (RXF 393 renal): 28.1 µM | TGI (SF-268 CNS): > 100 µM | TGI (SF-295 CNS): 30.5 µM | TGI (SF-539 CNS): 27.4 µM | TGI (SK-MEL-2 melanoma): 35.7 µM | TGI (SK-MEL-28 melanoma): 33.6 µM | TGI (SK-MEL-5 melanoma): 31 µM | TGI (SK-OV-3 ovarian): > 100 µM | TGI (SN12C renal): > 100 µM | TGI (SNB-75 CNS): > 100 µM | TGI (SNB-78 CNS): > 100 µM | TGI (SW-620 colon): 61.1 µM | TGI (TK-10 renal): > 100 µM | TGI (U251 CNS): 36.9 µM | TGI (UACC-257 melanoma): 49.1 µM | TGI (UACC-62 melanoma): 28.7 µM | TGI (UO-31 renal): 21.1 µM
